Measured values: publication PMC9494680 (ACS Omega, 2022)

Key:
SET-2 cells = details: human megakaryoblastic cell line; cited from earlier work
TF1 cells [1] = experiment: Cytotoxicity, PrestoBlue assay, TF1 cells; assay type: cell-based; details: Homo sapiens, TF-1, 72 h, read-out: IC50 toward TF1 cells
HEL cells = experiment: Cytotoxicity, PrestoBlue assay, HEL cells; assay type: cell-based; details: Homo sapiens, 72 h, read-out: IC50 toward HEL cells
TF1 cells [2] = experiment: Annexin V and dead cell flow cytometric apoptosis analysis; assay type: cell-based, human; details: TF1, IC25, IC50, IC75, 24 h
JAK1 = details: read-out: IC50 for JAK1; cited from earlier work
JAK3 = JAK3 (Homo sapiens, UniProt P52333); details: read-out: IC50 for JAK3 kinase inhibition; cited from earlier work
Chain of JAK3 (P52333 781-1124 limits assumed): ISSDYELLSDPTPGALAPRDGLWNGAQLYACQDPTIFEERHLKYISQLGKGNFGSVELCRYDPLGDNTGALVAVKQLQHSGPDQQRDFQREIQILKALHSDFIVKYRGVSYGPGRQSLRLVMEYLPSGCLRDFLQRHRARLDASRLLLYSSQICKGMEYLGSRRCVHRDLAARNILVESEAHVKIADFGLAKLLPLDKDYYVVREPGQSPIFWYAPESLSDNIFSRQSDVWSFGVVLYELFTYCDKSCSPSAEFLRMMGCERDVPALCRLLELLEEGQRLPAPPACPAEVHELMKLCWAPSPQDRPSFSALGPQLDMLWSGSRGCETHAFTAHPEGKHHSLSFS

For `Fc1cc(-c2cccc3ncc(-c4cnn(C5CCNCC5)c4)nc23)cc(F)c1CN1CCOCC1` [NVP-BSK805], which “Apoptosis induction in SET-2 cells” value (SET-2 cells) is on record?
Its value is “induced apoptosis in SET-2 cells”.

With `N#CC[C@H](C1CCCC1)n1cc(-c2ncnc3[nH]ccc23)cn1` [ruxolitinib] as the compound, how does the IC50 (TF1 cells [1]) read?
The IC50 was 10.7 ± 0.88 µM.

What about the IC50 (HEL cells) of the same compound?
Its IC50 is 19.3 ± 0.64 µM.

What about the “Percentage of cell apoptosis vs dose, annexin V” value (TF1 cells [2]) of the same compound?
The value was “increased in a dose-dependent manner”.

For `C[C@@H]1CCN(C(=O)CC#N)C[C@@H]1N(C)c1ncnc2[nH]ccc12` [tofacitinib], which “Percentage of cell apoptosis vs dose, annexin V” value (TF1 cells [2]) is on record?
Its value is “increased in a dose-dependent manner”.

With `COc1cc2ncnc(Nc3ccc(O)cc3)c2cc1OC` [WHI-P131] as the compound, how does the IC50 (JAK3) read?
The IC50 was 9 µM.
